Laboratory results: patent US20070123546A1, “2-amino-7,8-dihydro-6H-pyrido[4,3-d]pyrimidin-5-ones” (Chiron Corporation, priority 2005, published 2007)

Molecular target: His-tagged N-terminal ATP binding domain (amino acid residues 9-236) of HSP90α (Homo sapiens, UniProt P07900)
Test: HSP90 inhibitor binding potency: TRF competition binding assay
Details: competition with biotinylated radicicol
Outline: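 His-tagged HSP90α N-domain (residues 9-236) incubated 2 h at room temperature with biotinylated radicicol and increasing compound in 50 mM HEPES, 6 mM MgCl2, 20 mM KCl, 0.1% BSA. Bound tracer captured on streptavidin plates, detected with europium anti-His antibody by time-resolved fluorescence; IC50 derived.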

| IC50 (Table 2) [µM] | IC50 (Table 3) [µM] | SMILES | other results |
| --- | --- | --- | --- |
| – | – | COc1ncc(-c2cc(F)ccc2C2Cc3nc(N)nc(C)c3C(=O)N2)c(OC)n1 (stereo not shown) [Compound 35, 2-Amino-7-[2-(2,4-dimethoxy-pyrimidin-5-yl)-4-fluoro-phenyl]-4-methyl-7,8-dihydro-6H-pyrido[4,3-d]pyrimidin-5-one] | IC50 (Table 1): > 10 µM |
| – | – | COc1ccc(F)cc1-c1cc(F)ccc1[C@H]1Cc2nc(N)ncc2C(=O)N1 [Compound 177, (R)-2-Amino-7-(5,5′-difluoro-2′-methoxy-biphenyl-2-yl)-7,8-dihydro-6H-pyrido[4,3-d]pyrimidin-5-one] | IC50 (Table 4): < 10 µM |
| < 10 | – | COc1ccnc(-c2cc(F)ccc2[C@H]2Cc3nc(N)nc(C)c3C(=O)N2)n1 [Compound 48] | – |
| – | < 10 | COc1nc(-c2cc(F)ccc2[C@H]2Cc3nc(N)ncc3C(=O)N2)cnc1N [Compound 97, (R)-2-Amino-7-[2-(5-amino-6-methoxy-pyrazin-2-yl)-4-fluoro-ohenyl]-7,8-dihydro-6H-pyrido[4,3-d]pyrimidin-5-one] | – |
| – | < 10 | Cc1nc(N)nc2c1C(=O)N(CCCNC(=O)OC(C)(C)C)[C@@H](c1ccc(F)cc1-c1cccnc1)C2 [Compound 167, {3-[(R)-2-Amino-7-(4-fluoro-2-pyridin-3-yl-phenyl)-4-methyl-5-oxo-7,8-dihydro-5H-pyrido[4,3-d]pyrimidin-6-yl]-propyl}-carbamic acid tert-butyl ester] | – |
| < 10 | – | COc1cncc(-c2ccccc2[C@H]2Cc3nc(N)ncc3C(=O)N2)n1 [Compound 42, (R)-2-Amino-7-[2-(6-methoxy-pyrazin-2-yl)-phenyl]-7,8-dihydro-6H-pyrido[4,3-d]pyrimidin-5-one] | – |
| – | < 10 | COc1cccc(-c2cc(F)ccc2[C@H]2Cc3nc(N)nc(C)c3C(=O)N2CCC(C)C)n1 [Compound 150, (R)-2-Amino-7-[4-fluoro-2-(6-methoxy-pyridin-2-yl)-phenyl]-4-methyl-6-(3-methyl-butyl)-7,8-dihydro-6H-pyrido[4,3-d]pyrimidin-5-one] | – |
| > 10 | – | Cc1nc(N)nc2c1C(=O)N[C@@H](c1ccc(F)cc1-c1nccc(N3CCCC3)n1)C2 [Compound 49] | – |
| – | – | COc1ccnc(-c2cc(F)ccc2[C@H]2Cc3nc(N)nc(C)c3C(=O)N2)n1 [Compound 195, (R)-2-Amino-7-[4-fluoro-2-(4-methoxy-pyrimidin-2-yl)-phenyl]-4-methyl-7,8-dihydro-6H-pyrido[4,3-d]pyrimidin-5-one] | IC50 (Table 4): < 10 µM |
| – | < 10 | Cc1nc(N)nc2c1C(=O)N(CCCN)[C@@H](c1ccc(F)cc1-c1cccnc1)C2 [Compound 168, (R)-2-Amino-6-(3-amino-pnlpropyl)-7-(4-fluoro-2-pyridin-3-yl-phenyl)-4-methyl-7,8-dihydro-6H-pyrido[4,3-d]pyrimidin-5-one] | – |
